Where no end group is shown, it is not given here. [ ]: non-standard residue; d: D form.
Key:
[1] = tested on: MC38 colon carcinoma cells; experiment: MC38 colon carcinoma mouse model, tumour volume by caliper; format: in vivo; conditions: female C57/BL6N mice with MC38 tumours; CyPep-1 2 mg/kg intratumoural days 1 and 2; anti-PD-1 antibody 5 mg/kg intraperitoneal days 4, 8, 11, 15; unpaired two-tailed t-test; combination P=0.02
Experimental: Female C57/BL6N mice were shaved at the intended site of tumour inoculation. 4 days later the mice were implanted with 5×10^5 MC38 colon carcinoma cells in a mixture of 50% PBS and 50% matrigel in a total injection volume of 100 μl.
Tumour sizes were measured by caliper. When the median tumour volume reached 100 mm^3, 40 mice were randomised to four groups: 1) Ctr_IT; 2) Ctr_IT_PD1; 3) CyPep_IT; and 4) CyPep_IT_PD1.
The Ctr_IT group were administered 0.05 ml/kg intratumoural PBS on days 1 and 2.
The Ctr_IT_PD1 group were administered 0.05 ml/kg/day intratumoural PBS on days 1 and 2, and 5 mg/kg intraperitoneal anti-PD-1 antibody on days 4, 8, 11 and 15. The anti-PD-1 antibody was administered in PBS at a concentration of 1 mg/ml.
The CyPep_IT group were administered 2 mg/kg CyPep-1 on days 1 and 2. Administration was intratumoural in PBS at a concentration of 40 mg/ml.
The CyPep_IT_PD1 group were administered 2 mg/kg intratumoural CyPep-1 in PBS at a concentration of 40 mg/ml on days 1 and 2; and 5 mg/kg intraperitoneal anti-PD-1 antibody on days 4, 8, 11 and 15, in PBS at a concentration of 1 mg/ml.
All groups were standardised prior to checkpoint inhibitor administration by excluding animals with tumours+/−>2X average at day three. […] Average tumour volumes of the groups were analysed by unpaired two-tailed t-test, and the tumours were also histologically analysed.

[2] = tested on: Gram-positive and Gram-negative bacteria; conditions: medically-relevant species of Gram-positive and Gram-negative bacteria; cited from earlier work
[3] = tested on: tumour; conditions: animal models of disease; cited from earlier work
[4] = tested on: cancer cells; conditions: in vitro; cited from earlier work

Substance: CyPep-1: all D-amino acid peptide of SEQ ID NO: 1; Conductin/Axin2 fragment coupled to the C-terminus of the HIV-TAT cell-penetrating peptide ([dY]G[dR][dK][dK][dR][dR][dQ][dR][dR][dR]G[dK][dT][dL][dR][dV][dA][dK][dA][dI][dY][dK][dR][dY][dI][dE])
- tumour growth compared to the control group which received only PBS [1]: no statistically-significant difference
- bacteriocidal effect [2]: potent bacteriocidal effect
- anti-tumour effect [3]: strong anti-tumour effect
- tolerability [3]: well tolerated
- selective cytotoxicity towards cancer cells [4]: selectively cytotoxic towards cancer cells

Reference: patent US20210154268A1, “COMBINATION THERAPY USING A PEPTIDE” (CYTOVATION AS, priority 2018, published 2021)
